Data published in patent US10716791B2, “Inhibitors of peptidyl arginine deiminase (PAD) enzymes and uses thereof” (UNIVERSITY HEALTH NETWORK, priority 2015, dated 2020).
Where two headings read alike, the source gives them in different places. Values belong to the molecule of their own block, whether it stands above or below them.

What was measured:
PAD2 = PAD2 (Mus musculus (Mouse), UniProt Q08642); assay: Inhibition of PAD activity (Example 53), PAD2; conditions: for remaining activity at 100 µM / remaining activity at 1000 µM: read-out: Remaining activity of PAD2
Sequence of PAD2 (Q08642 whole entry): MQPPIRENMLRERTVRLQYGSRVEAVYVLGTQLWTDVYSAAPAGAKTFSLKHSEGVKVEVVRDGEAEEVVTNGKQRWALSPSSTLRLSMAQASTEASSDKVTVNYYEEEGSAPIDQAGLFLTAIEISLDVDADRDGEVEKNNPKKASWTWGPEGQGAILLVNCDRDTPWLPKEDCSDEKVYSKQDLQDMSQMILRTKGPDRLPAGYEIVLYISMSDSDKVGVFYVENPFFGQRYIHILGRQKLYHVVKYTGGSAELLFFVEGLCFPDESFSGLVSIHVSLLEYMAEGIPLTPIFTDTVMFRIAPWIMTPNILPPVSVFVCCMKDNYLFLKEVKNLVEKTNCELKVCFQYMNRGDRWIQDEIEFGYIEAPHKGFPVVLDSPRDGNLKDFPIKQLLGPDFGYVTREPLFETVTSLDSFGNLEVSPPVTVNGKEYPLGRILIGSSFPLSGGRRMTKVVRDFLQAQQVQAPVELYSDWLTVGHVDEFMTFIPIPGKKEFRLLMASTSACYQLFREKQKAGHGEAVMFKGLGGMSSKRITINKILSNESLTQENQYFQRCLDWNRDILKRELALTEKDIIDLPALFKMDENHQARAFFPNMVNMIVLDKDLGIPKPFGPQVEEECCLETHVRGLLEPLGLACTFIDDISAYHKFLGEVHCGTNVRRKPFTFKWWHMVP
Description: (§1) Materials: PAD1, PAD2, PAD3 and PAD4 were purchased from commercial sources. Assay buffer: 50 mM Tris pH 7.5, 100 mM NaCl, 10 mM CaCl2, 5 mM DTT.
(§2) The inhibitor (12.5 μL of stock) was mixed with appropriate amount of substrate (BAEE) stock solution and preincubated at 37° C. for a period in the range of 0-60 min. The reaction was initiated by the addition of the enzyme. The reaction samples were incubated for a period in the range of 0-60 min. […] Samples were cooled on ice, vortexed and centrifuged. 200 μL aliquots were transferred to the 96-well plate and the absorbance was measured at 530 nm and the remaining activity was computed. The remaining activity data were plotted versus inhibitor concentration and fitted to the dose-response equation to calculate IC50.

PAD4 [1] = target: T1, PAD4 (Homo sapiens (Human), UniProt Q9UM07); assay: Inhibition of PAD activity (Example 53), PAD4; conditions: for PAD4 Ki ± std error / Ki: Table 5; for remaining activity at 100 µM / remaining activity at 1000 µM: read-out: Remaining activity of PAD4; for Ki: read-out: PAD4 Ki ± std error
T1 sequence (Q9UM07 whole entry): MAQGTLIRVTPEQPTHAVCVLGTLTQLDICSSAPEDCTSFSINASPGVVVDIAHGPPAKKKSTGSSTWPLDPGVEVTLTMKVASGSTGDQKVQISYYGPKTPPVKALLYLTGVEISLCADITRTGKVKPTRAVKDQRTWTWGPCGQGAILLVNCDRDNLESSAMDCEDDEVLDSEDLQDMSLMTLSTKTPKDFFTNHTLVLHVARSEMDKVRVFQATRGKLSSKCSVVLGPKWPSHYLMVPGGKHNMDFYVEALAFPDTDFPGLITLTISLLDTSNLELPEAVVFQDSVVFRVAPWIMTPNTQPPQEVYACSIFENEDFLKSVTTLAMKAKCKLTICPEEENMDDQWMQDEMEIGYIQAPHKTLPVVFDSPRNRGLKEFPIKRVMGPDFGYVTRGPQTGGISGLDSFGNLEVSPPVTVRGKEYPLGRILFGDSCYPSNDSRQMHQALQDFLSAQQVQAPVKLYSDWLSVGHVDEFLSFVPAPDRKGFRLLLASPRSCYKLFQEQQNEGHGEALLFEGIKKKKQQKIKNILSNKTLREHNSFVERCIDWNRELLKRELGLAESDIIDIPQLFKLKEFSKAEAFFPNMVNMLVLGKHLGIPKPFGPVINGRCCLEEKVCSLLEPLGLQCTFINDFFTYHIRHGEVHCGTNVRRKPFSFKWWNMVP
Description: as §1, §2

PAD1 [2] = target: T2, PAD1 (Homo sapiens (Human), UniProt Q9ULC6); assay: Inhibition of PAD activity (Example 53), PAD1; conditions: Table 5; for Ki: read-out: PAD1 Ki ± std error
T2 sequence (Q9ULC6 whole entry): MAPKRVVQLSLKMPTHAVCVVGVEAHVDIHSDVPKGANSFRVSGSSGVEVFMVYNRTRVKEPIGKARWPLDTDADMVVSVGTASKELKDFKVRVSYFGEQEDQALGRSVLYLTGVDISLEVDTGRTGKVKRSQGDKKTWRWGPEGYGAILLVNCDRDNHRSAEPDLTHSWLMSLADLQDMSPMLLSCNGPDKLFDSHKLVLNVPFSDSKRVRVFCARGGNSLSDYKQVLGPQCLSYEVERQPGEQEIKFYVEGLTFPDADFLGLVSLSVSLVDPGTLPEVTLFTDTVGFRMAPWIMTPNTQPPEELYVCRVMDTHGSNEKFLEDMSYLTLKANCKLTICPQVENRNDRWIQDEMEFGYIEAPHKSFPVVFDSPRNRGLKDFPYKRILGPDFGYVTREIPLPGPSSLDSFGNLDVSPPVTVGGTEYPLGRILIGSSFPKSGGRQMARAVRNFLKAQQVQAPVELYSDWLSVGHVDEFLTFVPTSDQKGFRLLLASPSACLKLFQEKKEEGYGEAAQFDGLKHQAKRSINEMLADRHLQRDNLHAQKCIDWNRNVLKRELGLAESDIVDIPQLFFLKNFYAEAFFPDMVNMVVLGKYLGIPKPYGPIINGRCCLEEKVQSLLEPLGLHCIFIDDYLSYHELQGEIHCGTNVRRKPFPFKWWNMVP
Description: as §1, §2

mPAD2 = mPAD2 (Mus musculus (Mouse), UniProt Q08642); assay: Enzyme inhibition kinetics (Example 54), mPAD2; assay type: biochemical; conditions: for Ki: Table 6; for Selectivity ratio of inhibition, mPAD2 (PAD4): mPAD2 versus PAD4
Sequence of mPAD2 (Q08642 whole entry): as the sequence (Q08642 whole entry) above

PAD4 [3] = target: T1, PAD4; assay: Enzyme inhibition kinetics (Example 54), hPAD4; assay type: biochemical; conditions: for Ki: Table 6
animal models of MS = conditions: cited from earlier work
PAD1 [4] = target: T2, PAD1; assay: Enzyme inhibition kinetics (Example 54), hPAD1; assay type: biochemical; conditions: for Ki: Table 6
CHO cells = assay: CHO cell toxicity assay; assay type: cell-based; conditions: Cricetulus griseus
PADs = assay: Enzymatic assays with hPAD1, mPAD2 and hPAD4, stated for PADs overall; assay type: biochemical; conditions: summary of Table 6; read-out: Ki, activity towards PADs
PAD enzymes = conditions: most potent non-peptidic compounds from the literature; cited from earlier work
[5] = read-out: PAD2 Ki ± std error, Table 5
[6] = read-out: PAD2 inhibition constant Ki ± Std Error, Table 1

SMILES: O=C(N[C@@H](CCO)C(=O)Nc1ccccc1)OCc1ccccc1 [KP-231]
remaining activity at 100 µM (PAD2): 44.4 ± 0.5%
remaining activity at 1000 µM (PAD2): 45.5 ± 1.1%
remaining activity at 100 µM (PAD4 [1]): 100 ± 4.6%
remaining activity at 1000 µM (PAD4 [1]): 82.3 ± 3.7%

SMILES: O=C(Nc1ccccc1)[C@H](CC(=O)N1CCNCC1)NC(=O)N1CCOCC1 [KP-229]
remaining activity at 100 µM (PAD2): 54 ± 2.7%
remaining activity at 1000 µM (PAD2): 63.3 ± 2%
remaining activity at 100 µM (PAD4 [1]): 100 ± 5.5%
remaining activity at 1000 µM (PAD4 [1]): 100 ± 2.6%

SMILES: N=C(N)CCl [Compound 2CA, 2-chloroacetamidine]
MS disease (animal models of MS; four animal models of MS): attenuated MS disease
PAD activity in the brain (animal models of MS; four animal models of MS): decreased PAD activity in the brain
amount of citrullinated protein (animal models of MS; four animal models of MS): decreased the amount of citrullinated protein
disease after therapy cessation at 6 months (animal models of MS; one murine model): fully progressive clinical disease re-emerged promptly
disease with early and prolonged administration (animal models of MS; one murine model): essentially prevented the disease

SMILES: CC(C)NC(=O)[C@H](CCN1CCN(C)CC1)NC(=O)N1CCOCC1 [KP-287, (S)—N-(1-(Isopropylamino)-4-(4-methylpiperazin-1-yl)-1-oxobutan-2-yl)morpholine-4-carboxamide]
Ki (PAD2; [5]): 600 ± 1330 µM
Ki (mPAD2): > 10000 µM
PAD4 Ki ± std error (PAD4 [1]): No inhibition up to 10 mM
Ki (PAD1 [4]): > 10000 µM
PAD1 Ki ± std error (PAD1 [2]): Some inhibition but IC50 not calculated - no Ki
IC50 (CHO cells): > 2000 µM
Ki (PADs): 200 to 500 µM
Ki (PAD4 [3]): > 10000 µM

SMILES: O=C(N[C@@H](CCN1CCNCC1)C(=O)NCc1ccccc1)c1ccco1 [KP-228, (S)—N-(1-(Benzylamino)-1-oxo-4-(piperazin-1-yl)butan-2-yl)furan-2-carboxamide]
remaining activity at 100 µM (PAD2): 58.6 ± 3.6%
remaining activity at 1000 µM (PAD2): 31.8 ± 4.9%
remaining activity at 100 µM (PAD4 [1]): 96.4 ± 10.4%
remaining activity at 1000 µM (PAD4 [1]): 82.1 ± 7.2%

SMILES: COC(=O)[C@H](CN1CCNCC1)NC(=O)C1CCCCC1 [KP-224]
Ki (PAD2; [6]): 21.3 ± 3.4 µM

SMILES: CN(C)[C@@H]1C(O)=C(C(N)=O)C(=O)[C@@]2(O)C(O)=C3C(=O)c4c(O)ccc(Cl)c4[C@@](C)(O)[C@H]3C[C@@H]12 [chlortetracycline]
IC50 (PAD enzymes): 100 µM

SMILES: O=C(N[C@@H](CC(=O)N1CCNCC1)C(=O)Nc1ccccc1)c1ccco1 [KP-230]
remaining activity at 100 µM (PAD2): 55.1 ± 0.5%
remaining activity at 1000 µM (PAD2): 33.5 ± 0.4%
remaining activity at 100 µM (PAD4 [1]): 96.9 ± 7.6%
remaining activity at 1000 µM (PAD4 [1]): 82.4 ± 1.7%

SMILES: CC(C)NC(=O)[C@H](CCn1ccnc1)NC(=O)c1ccco1 [KP-286, (S)—N-(4-(1[H]-imidazol-1-yl)-1-(isopropylamino)-1-oxobutan-2-yl) furan-2-carboxamide]
Ki (PAD2; [5]): 554 ± 93 µM
Ki (mPAD2): 554 ± 93 µM
Ki (PAD1 [4]): 964 ± 689 µM
Ki (PAD1 [2]): 2500 ± 1780 µM
IC50 (CHO cells): 546 ± 136 µM

SMILES: COC(=O)[C@H](CN1CCNCC1)NC(=O)c1ccco1 [KP-225, (S)-Methyl 2-(furan-2-carboxamido)-3-(piperazin-1-yl)propanoate]
remaining activity at 100 µM (PAD2): 86.6 ± 3%
remaining activity at 1000 µM (PAD2): 70.8 ± 1.7%
remaining activity at 100 µM (PAD4 [1]): 78.7 ± 9.5%
remaining activity at 1000 µM (PAD4 [1]): 62.2 ± 2.7%

SMILES: O=C(N[C@@H](CN1CCNCC1)C(=O)NCc1ccccc1)c1ccco1 [KP-227, (S)—N-(1-(Benzylamino)-1-oxo-3-(piperazin-1-yl)propan-2-yl)furan-2-carboxamide]
remaining activity at 100 µM (PAD2): 63.7 ± 0.6%
remaining activity at 1000 µM (PAD2): 68.2 ± 2.3%
remaining activity at 100 µM (PAD4 [1]): 100 ± 1.3%
remaining activity at 1000 µM (PAD4 [1]): 82.2 ± 2.4%

SMILES: CC(C)NC(=O)[C@H](CCN1CCN(C)CC1)NC(=O)c1ccco1 [KP-289, (S)—N-(1-(Isopropylamino)-4-(4-methylpiperazin-1-yl)-1-oxobutan-2-yl)furan-2-carboxamide]
Ki (PAD2; [5]): 1790 ± 2420 µM
Ki (mPAD2): 1840 ± 2420 µM
Selectivity ratio of inhibition, mPAD2 (PAD4) (mPAD2): 0.3 (PAD4)
Ki (PAD4 [1]): 488 ± 47 µM
IC50 (CHO cells): > 2000 µM
Ki (PAD4 [3]): 488 ± 47 µM
Selectivity ratio of inhibition, hPAD4 (PAD2) (PAD4 [3]; hPAD4 versus PAD2): 3.7 (PAD2)

SMILES: CC(C)NC(=O)[C@H](CCn1cnc(CC#N)c1)NC(=O)c1ccco1 [KP-288, (S)—N-(4-(4-(Cyanomethyl)-1[H]-imidazol-1-yl)-1-(isopropylamino)-1-oxobutan-2-yl)furan-2-carboxamide]
Ki (PAD2; [5]): 176 ± 62 µM
Ki (mPAD2): 1000 ± 876 µM
Selectivity ratio of inhibition, mPAD2 (PAD1) (mPAD2; mPAD2 versus PAD1): 0.4
Selectivity ratio of inhibition, mPAD2 (PAD4) (mPAD2): 0.6
Ki (PAD4 [1]): 591 ± 77 µM
inhibitor efficacy towards hPAD1 in comparison to other isozymes (PAD1 [4]): at least 3 fold
Ki (PAD1 [4]): 353 ± 23 µM
Selectivity ratio of inhibition, hPAD1 (PAD2) (PAD1 [4]; hPAD1 versus PAD2, ratios greater than 2-fold suggest selectivity): 2.8
Selectivity ratio of inhibition, hPAD1 (PAD4) (PAD1 [4]; hPAD1 versus PAD4): 1.6
Ki (PAD1 [2]): 914 ± 59 µM
IC50 (CHO cells): > 2000 µM
Ki (PAD4 [3]): 591 ± 77 µM
Selectivity ratio of inhibition, hPAD4 (PAD1) (PAD4 [3]; hPAD4 versus PAD1): 0.6

SMILES: COC(=O)[C@H](CCN1CCNCC1)NC(=O)c1ccco1 [KP-226, (S)-Methyl 2-(furan-2-carboxamido)-4-(piperazin-1-yl)butanoate]
Ki (PAD2; [5]): 286 ± 27 µM
Ki (PAD2; [6]): 19.7 ± 2 µM

Second part, led by results:

Ki (PAD2; [5]): 5300 ± 7830 µM
PAD4 Ki ± std error (PAD4 [1]): No inhibition up to 10 mM
SMILES: O=C(NCc1ccccc1)[C@H](Cn1ccnc1)NC(=O)N1CCCCC1 [KP-304]

PAD2 Ki ± std error (PAD2; Table 5): No inhibition up to 10 mM
PAD4 Ki ± std error (PAD4 [1]): No inhibition up to 10 mM
PAD1 Ki ± std error (PAD1 [2]): No inhibition up to 10 mM
SMILES: CC(C)NC(=O)[C@H](CN1CCN(C)CC1)NC(=O)N1CCOCC1 [KP-291]

PAD2 Ki ± std error (PAD2; Table 5): No inhibition up to 10 mM
Ki (mPAD2): > 10000 µM
PAD4 Ki ± std error (PAD4 [1]): No inhibition up to 10 mM
Ki (PAD4 [3]): > 10000 µM
SMILES: CC(C)NC(=O)[C@H](CCN1CCN(C)CC1)NC(=O)C1CCCCC1 [KP-295, (S)—N-(1-(Isopropylamino)-4-(4-methylpiperazin-1-yl)-1-oxobutan-2yl) cyclohexanecarboxamide]

PAD2 Ki ± std error (PAD2; Table 5): No inhibition up to 10 mM
PAD4 Ki ± std error (PAD4 [1]): No inhibition up to 10 mM
PAD1 Ki ± std error (PAD1 [2]): No inhibition up to 10 mM
SMILES: CC(C)(C)OC(=O)N[C@@H](CN=[N+]=[N-])C(=O)NCc1ccccc1 [KP-306]

Ki (PAD2; [5]): 58 ± 5 µM
Ki (PAD1 [2]): 147 ± 52 µM
SMILES: Cn1cccc1C(=O)N[C@@H](Cn1ccnc1)C(=O)NCc1ccccc1 [KP-305]

Ki (PAD1 [4]): > 10000 µM
Ki (PAD1 [2]): 77700 ± 91500 µM
SMILES: O=C(N[C@@H](CCn1ccnn1)C(=O)NCc1ccccc1)c1ccc(F)cc1 [KP-316, (S)—N-(1-(Benzylamino)-1-oxo-4-(1[H]-1,2,3-triazol-1-yl)butan-2-yl)-4-fluorobenzamide]
PAD2 Ki ± std error (PAD2; Table 5): Some inhibition but IC50 can't be calculated - no Ki
PAD4 Ki ± std error (PAD4 [1]): Some inhibition but IC50 can't be calculated - no Ki

Ki (PAD4 [1]): ~14900 µM
SMILES: CC(C)NC(=O)[C@H](Cn1ccnc1)NC(=O)N1CCOCC1 [KP-292]

PAD4 Ki ± std error (PAD4 [1]): No inhibition up to 10 mM
SMILES: CC(C)NC(=O)[C@H](CN1CCN(C)CC1)NC(=O)N1CCCCC1 [KP-290]

Ki (PAD2; [5]): 1430 ± 186 µM
Ki (PAD4 [1]): 1450 ± 187 µM
Ki (PAD1 [2]): 3430 ± 1940 µM
SMILES: CC(C)(C)OC(=O)N[C@H](CCN=[N+]=[N-])C(=O)NCc1ccccc1 [KP-310]

Ki (PAD2; [5]): 662 ± 210 µM
Ki (PAD4 [1]): 1240 ± 1390 µM
Ki (PAD1 [2]): 785 ± 384 µM
SMILES: COC(=O)[C@H](Cn1ccnc1)NC(=O)c1ccco1 [KP-298]

PAD2 Ki ± std error (PAD2; Table 5): No inhibition up to 10 mM
Ki (mPAD2): > 10000 µM
PAD4 Ki ± std error (PAD4 [1]): No inhibition up to 10 mM
Ki (PAD1 [4]): > 10000 µM
PAD1 Ki ± std error (PAD1 [2]): No inhibition up to 10 mM
Ki (PADs): 200 to 500 µM
Ki (PAD4 [3]): > 10000 µM
SMILES: O=C(N[C@@H](CCn1ccnc1)C(=O)NCc1ccccc1)c1ccco1 [KP-301, (S)—N-(1-(Benzylamino)-4-(1 [H]-imidazol-1-yl)-1-oxobutan-2-yl) furan-2-carboxamide]

PAD2 Ki ± std error (PAD2; Table 5): No inhibition up to 10 mM
PAD4 Ki ± std error (PAD4 [1]): No inhibition up to 10 mM
PAD1 Ki ± std error (PAD1 [2]): No inhibition up to 10 mM
SMILES: CC(C)(C)OC(=O)N[C@H](CCO)C(=O)NCc1ccccc1 [KP-311]

Ki (PAD2; [5]): 739 ± 339 µM
Ki (PAD4 [1]): 1070 ± 427 µM
PAD1 Ki ± std error (PAD1 [2]): No inhibition up to 10 mM
SMILES: O=C(N[C@@H](Cn1ccnc1)C(=O)OCc1ccccc1)c1ccco1 [KP-300]
